Experimental data published in ChEMBL document CHEMBL4715792, “In Vivo and In Vitro Optimization of Screening Antimalarial Hits toward Lead Molecules for Preclinical Development” (J Med Chem, 2016).
Converted amounts (≈) assume the structure as drawn. One block for each compound: values may come before it.

How the values were obtained:
[1] = Selectivity index, ratio of CC50 for human MRC5 cells to EC50 for antimalarial activity against Plasmodium falciparum 3D7; format: toxicity; conditions: read-out: Selectivity Index
[2] = Intrinsic clearance in mouse liver microsomes; format: ADME, Microsome
[3] = Aqueous solubility of compound; format: physicochemical
Plasmodium falciparum [4] = assay: Antimalarial activity against Plasmodium falciparum 3D7; format: functional, organism-based
Plasmodium falciparum [5] = assay: Antimalarial activity against drug resistant Plasmodium falciparum W2; format: functional, organism-based
Plasmodium falciparum [6] = assay: Antimalarial activity against drug resistant Plasmodium falciparum NF5; format: functional, organism-based
Plasmodium falciparum [7] = assay: Antimalarial activity against drug resistant Plasmodium falciparum D6; format: functional, organism-based
Plasmodium falciparum [8] = assay: Antimalarial activity against drug resistant Plasmodium falciparum TM90C2A; format: functional, organism-based
Plasmodium falciparum [9] = assay: Antimalarial activity against drug resistant Plasmodium falciparum K1; format: functional, organism-based
Plasmodium falciparum [10] = assay: Antimalarial activity against drug resistant Plasmodium falciparum V1/S; format: functional, organism-based
Plasmodium falciparum [11] = assay: Antimalarial activity against drug resistant Plasmodium falciparum 7G8; format: functional, organism-based
Plasmodium berghei [12] = assay: Antimalarial activity against Plasmodium berghei infected in mouse assessed as reduction in parasitemia at 1 mg/kg, po dosed 4 times; format: functional
Plasmodium berghei [13] = assay: Antimalarial activity against Plasmodium berghei infected in orally dosed mouse assessed as reduction in parasitemia; format: functional; conditions: po

Intrinsic clearance [2]: >= 5 ml/min/g | solubility [3]: ≤ 39 µM
SMILES: Cc1ccc(-c2cc(C(=O)Nc3cccnc3)c3cc(Br)ccc3n2)cc1
selectivity ratio [1]: > 100

Intrinsic clearance [2]: 8.6 mL/min/g | solubility [3]: 36 µM (≈ 12.9 µg/mL)
SMILES: Cc1ccc(-c2cc(C(=O)Nc3cccnc3)c3cc(F)ccc3n2)cc1

EC50 (Plasmodium falciparum [4]): 700 nM | Intrinsic clearance [2]: 3.4 mL/min/g
SMILES: Cc1ccc(-c2cc(C(=O)NCCN3CCCC3)c3cc(F)ccc3n2)cc1

SMILES: O=C(NCCN1CCCC1)c1cc(-c2ccc(CN3CCOCC3)cc2)nc2ccc(F)cc12 [CABAMIQUINE]
EC50 (Plasmodium falciparum [5]): < 1 nM | EC50 (Plasmodium falciparum [6]): < 1 nM | EC50 (Plasmodium falciparum [7]): < 1 nM | EC50 (Plasmodium falciparum [8]): < 1 nM | EC50 (Plasmodium falciparum [9]): < 1 nM | EC50 (Plasmodium falciparum [4]): 1 nM | EC50 (Plasmodium falciparum [10]): < 1 nM | EC50 (Plasmodium falciparum [11]): < 1 nM | Intrinsic clearance [2]: < 0.9 mL/min/g | inhibition in vivo at 1 mg/kg (Plasmodium berghei [12]): > 99% | ED90 (Plasmodium berghei [13]): 0.3 mg/kg
